PubChem BioAssay AID1963850 (Molecular Pharmacology Branch, DTP, NCI, 2024)

Tested on: 192522-019-R-J2-PDC complex tumor spheroid viability
Assay: Anticancer human tumor 192522-019-R-J2-PDC patient-derived colon adenocarcinoma cell line growth inhibition [POLQ]
Conditions: for IC50: curve of first compound; for viability, T/C: stronger effect = lower value
Method in brief: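 Patient-derived tumour cells were co-cultured with HUVEC and mesenchymal stem cells as multicellular spheroids at 37 °C. They were treated with POLQ inhibitors (novobiocin, ART-558, RP6685) alone or combined with other agents. Top concentrations were at or near clinical Cmax (otherwise 10 microM; SN-38 at 1 microM), decreasing in half-log steps.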

[1] = second compound 0.0316 µM, first compound 0.0316 µM
[2] = second compound 0.0316 µM, first compound 0.1 µM
[3] = second compound 0.0316 µM, first compound 0.316 µM
[4] = second compound 0.0316 µM, first compound 1 µM
[5] = second compound 0.1 µM, first compound 0.0316 µM
[6] = second compound 0.1 µM, first compound 0.1 µM
[7] = second compound 0.1 µM, first compound 0.316 µM
[8] = second compound 0.1 µM, first compound 1 µM
[9] = second compound 0.316 µM, first compound 0.0316 µM
[10] = second compound 0.316 µM, first compound 0.1 µM
[11] = second compound 0.316 µM, first compound 0.316 µM
[12] = second compound 0.316 µM, first compound 1 µM
[13] = second compound 1 µM, first compound 0.0316 µM
[14] = second compound 1 µM, first compound 0.1 µM
[15] = second compound 1 µM, first compound 0.316 µM
[16] = second compound 1 µM, first compound 1 µM
[17] = second compound 3.16 µM, first compound 0.0316 µM
[18] = second compound 3.16 µM, first compound 0.1 µM
[19] = second compound 3.16 µM, first compound 0.316 µM
[20] = second compound 3.16 µM, first compound 1 µM
[21] = second compound 10 µM, first compound 0.0316 µM
[22] = second compound 10 µM, first compound 0.1 µM
[23] = second compound 10 µM, first compound 0.316 µM
[24] = second compound 10 µM, first compound 1 µM
[25] = second compound 0.0316 µM, first compound 0.00316 µM
[26] = second compound 0.0316 µM, first compound 0.01 µM
[27] = second compound 0.1 µM, first compound 0.00316 µM
[28] = second compound 0.1 µM, first compound 0.01 µM
[29] = second compound 0.316 µM, first compound 0.00316 µM
[30] = second compound 0.316 µM, first compound 0.01 µM
[31] = second compound 1 µM, first compound 0.00316 µM
[32] = second compound 1 µM, first compound 0.01 µM
[33] = second compound 3.16 µM, first compound 0.00316 µM
[34] = second compound 3.16 µM, first compound 0.01 µM
[35] = second compound 10 µM, first compound 0.00316 µM
[36] = second compound 10 µM, first compound 0.01 µM
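Note: spheroids exposed to drugs for seven days before reading.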
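Throughout, for viability, T/C: 100% = DMSO vehicle control viability in luminescence.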

Q: What does the source list for `CNCc1ccc(-c2[nH]c3cc(F)cc4c3c2CCNC4=O)cc1` + COC1C(OC(N)=O)C(O)C(Oc2ccc3c(O)c(NC(=O)c4ccc(O)c(CC=C(C)C)c4)c(=O)oc3c2C)OC1(C)C?
A: IC50 (second compound 0.0316 µM): > 10 µM; IC50 (second compound 0.1 µM): > 10 µM; IC50 (second compound 0.316 µM): > 10 µM; IC50 (second compound 1 µM): > 10 µM; IC50 (second compound 3.16 µM): > 10 µM; IC50 (second compound 10 µM): > 10 µM; viability, T/C [1]: 94.4%; viability, T/C [2]: 90.5%; viability, T/C [3]: 96%; viability, T/C [4]: 99.2%; viability, T/C (second compound 0.0316 µM, first compound 3.16 µM): 102%; viability, T/C (second compound 0.0316 µM, first compound 10 µM): 99.3%; viability, T/C [5]: 110%; viability, T/C [6]: 96%; viability, T/C [7]: 96.4%; viability, T/C [8]: 103%; viability, T/C (second compound 0.1 µM, first compound 3.16 µM): 114%; viability, T/C (second compound 0.1 µM, first compound 10 µM): 96.4%; viability, T/C [9]: 107%; viability, T/C [10]: 102%; viability, T/C [11]: 102%; viability, T/C [12]: 107%; viability, T/C (second compound 0.316 µM, first compound 3.16 µM): 99.5%; viability, T/C (second compound 0.316 µM, first compound 10 µM): 101%; viability, T/C [13]: 99.7%; viability, T/C [14]: 96%; viability, T/C [15]: 98.5%; viability, T/C [16]: 104%; viability, T/C (second compound 1 µM, first compound 3.16 µM): 102%; viability, T/C (second compound 1 µM, first compound 10 µM): 97.5%; viability, T/C [17]: 110%; viability, T/C [18]: 98.7%; viability, T/C [19]: 102%; viability, T/C [20]: 101%; viability, T/C (second compound 3.16 µM, first compound 3.16 µM): 99.9%; viability, T/C (second compound 3.16 µM, first compound 10 µM): 95.7%; viability, T/C [21]: 102%; viability, T/C [22]: 95%; viability, T/C [23]: 106%; viability, T/C [24]: 96.9%; viability, T/C (second compound 10 µM, first compound 3.16 µM): 98.6%; viability, T/C (second compound 10 µM, first compound 10 µM): 102%

Q: For `COc1cccc(OCCCN)c1-c1cc(Nc2cnc(C#N)cn2)n[nH]1` + COC1C(OC(N)=O)C(O)C(Oc2ccc3c(O)c(NC(=O)c4ccc(O)c(CC=C(C)C)c4)c(=O)oc3c2C)OC1(C)C, which IC50 (second compound 0.0316 µM) is on record?
A: The IC50 was 0.0143 µM.

Q: And the IC50 (second compound 0.1 µM)?
A: Its IC50 is 0.0157 µM.

Q: What about the IC50 (second compound 0.316 µM) of the same compound?
A: The IC50 was 0.0158 µM.

Q: What about the IC50 (second compound 1 µM) of the same compound?
A: The IC50 was 0.0166 µM.

Q: And the IC50 (second compound 3.16 µM)?
A: The IC50 was 0.0186 µM.

Q: And the IC50 (second compound 10 µM)?
A: Its IC50 is 0.0189 µM.

Q: And the viability, T/C [25]?
A: The viability, T/C was 96%.

Q: And the viability, T/C [26]?
A: The viability, T/C was 55.5%.

Q: And the viability, T/C [1]?
A: Its viability, T/C is 38%.

Q: And the viability, T/C [2]?
A: Its viability, T/C is 30.8%.

Q: What about the viability, T/C [3] of the same compound?
A: The viability, T/C was 30.7%.

Q: What about the viability, T/C [4] of the same compound?
A: The viability, T/C was 30.5%.

Q: And the viability, T/C [27]?
A: Its viability, T/C is 94.7%.

Q: What about the viability, T/C [28] of the same compound?
A: The viability, T/C was 58.7%.

Q: And the viability, T/C [5]?
A: The viability, T/C was 35.3%.

Q: And the viability, T/C [6]?
A: Its viability, T/C is 35%.

Q: And the viability, T/C [7]?
A: Its viability, T/C is 28.9%.

Q: What about the viability, T/C [8] of the same compound?
A: The viability, T/C was 28.2%.

Q: What about the viability, T/C [29] of the same compound?
A: The viability, T/C was 90%.

Q: What about the viability, T/C [30] of the same compound?
A: The viability, T/C was 60.6%.

Q: And the viability, T/C [9]?
A: Its viability, T/C is 33.6%.

Q: What about the viability, T/C [10] of the same compound?
A: The viability, T/C was 31.8%.

Q: What about the viability, T/C [11] of the same compound?
A: Its viability, T/C is 27.2%.

Q: And the viability, T/C [12]?
A: The viability, T/C was 29.9%.

Q: What about the viability, T/C [31] of the same compound?
A: Its viability, T/C is 84.8%.

Q: What about the viability, T/C [32] of the same compound?
A: The viability, T/C was 61.8%.

Q: What about the viability, T/C [13] of the same compound?
A: Its viability, T/C is 35.2%.

Q: And the viability, T/C [14]?
A: The viability, T/C was 30.1%.

Q: What about the viability, T/C [15] of the same compound?
A: Its viability, T/C is 30.9%.

Q: And the viability, T/C [16]?
A: Its viability, T/C is 30.5%.

Q: What about the viability, T/C [33] of the same compound?
A: Its viability, T/C is 87.6%.

Q: What about the viability, T/C [34] of the same compound?
A: The viability, T/C was 69.5%.

Q: And the viability, T/C [17]?
A: The viability, T/C was 33.3%.

Q: What about the viability, T/C [18] of the same compound?
A: The viability, T/C was 28.9%.

Q: What about the viability, T/C [19] of the same compound?
A: The viability, T/C was 35.6%.

Q: And the viability, T/C [20]?
A: The viability, T/C was 32.1%.

Q: What about the viability, T/C [35] of the same compound?
A: Its viability, T/C is 89.7%.

Q: What about the viability, T/C [36] of the same compound?
A: Its viability, T/C is 64.6%.

Q: And the viability, T/C [21]?
A: Its viability, T/C is 38.4%.

Q: And the viability, T/C [22]?
A: The viability, T/C was 32%.

Q: What about the viability, T/C [23] of the same compound?
A: Its viability, T/C is 32.5%.

Q: What about the viability, T/C [24] of the same compound?
A: The viability, T/C was 34%.

Q: What does the source list for `Cn1ncnc1[C@H]1c2n[nH]c(=O)c3cc(F)cc(c23)N[C@@H]1c1ccc(F)cc1` + COC1C(OC(N)=O)C(O)C(Oc2ccc3c(O)c(NC(=O)c4ccc(O)c(CC=C(C)C)c4)c(=O)oc3c2C)OC1(C)C?
A: IC50 (second compound 0.0316 µM): > 0.1 µM; IC50 (second compound 0.1 µM): > 0.1 µM; IC50 (second compound 0.316 µM): > 0.1 µM; IC50 (second compound 1 µM): > 0.1 µM; IC50 (second compound 3.16 µM): > 0.1 µM; IC50 (second compound 10 µM): > 0.1 µM; viability, T/C (second compound 0.0316 µM, first compound 0.000316 µM): 118%; viability, T/C (second compound 0.0316 µM, first compound 0.001 µM): 91.9%; viability, T/C [25]: 95.2%; viability, T/C [26]: 96.6%; viability, T/C [1]: 102%; viability, T/C [2]: 91.4%; viability, T/C (second compound 0.1 µM, first compound 0.000316 µM): 103%; viability, T/C (second compound 0.1 µM, first compound 0.001 µM): 100%; viability, T/C [27]: 103%; viability, T/C [28]: 103%; viability, T/C [5]: 100%; viability, T/C [6]: 97.2%; viability, T/C (second compound 0.316 µM, first compound 0.000316 µM): 99.9%; viability, T/C (second compound 0.316 µM, first compound 0.001 µM): 99.2%; viability, T/C [29]: 99.4%; viability, T/C [30]: 97.4%; viability, T/C [9]: 93.8%; viability, T/C [10]: 87.2%; viability, T/C (second compound 1 µM, first compound 0.000316 µM): 98.8%; viability, T/C (second compound 1 µM, first compound 0.001 µM): 95.6%; viability, T/C [31]: 101%; viability, T/C [32]: 99.2%; viability, T/C [13]: 86.5%; viability, T/C [14]: 95.1%; viability, T/C (second compound 3.16 µM, first compound 0.000316 µM): 110%; viability, T/C (second compound 3.16 µM, first compound 0.001 µM): 98.8%; viability, T/C [33]: 108%; viability, T/C [34]: 98.1%; viability, T/C [17]: 95.8%; viability, T/C [18]: 90.5%; viability, T/C (second compound 10 µM, first compound 0.000316 µM): 108%; viability, T/C (second compound 10 µM, first compound 0.001 µM): 89.8%; viability, T/C [35]: 96.4%; viability, T/C [36]: 102%; viability, T/C [21]: 107%; viability, T/C [22]: 94.4%
